Read-outs that look alike come from different tables or passages of the source.

This is an account of results in patent US8173689B2 (Novartis AG, priority 2006, dated 2012).

The target in one assay is T1, kinase domain of PDGFRβ (Homo sapiens, UniProt P09619).
T1 construct: The kinase domain of PDGFRβ was assayed in 50 mM Hepes; purchased Invitrogen P3082
Description: Inhibition of PDGFRb kinase signaling in an in vitro biochemical assay (alphascreen). The following applies: tested at about 1 μM, read-out: PDGFRβ percent inhibition.

Assay [1] has as its target T2, full-length human CSF-1R receptor (Homo sapiens, UniProt P07333).
T2 construct: transfected with the full-length human CSF-1R receptor cloned in house; expressed in transfected cells; host or cells: HEK293H (Invitrogen Cat. #11631017)
Put plainly: In vitro inhibition of CSF-1R receptor tyrosine phosphorylation in transfected HEK293H cells stimulated with MCSF. The format is cell-based. The following applies: HEK293-H, tested at about 1 μM, read-out: pCSF1R percent inhibition. Here is the method:
The lysate was then transferred to total CSF-1R antibody coated 96-well plates that had already been blocked with 3% Blocker A from Mesoscale discovery (MSD) for 2 hours and washed afterwards. Lysates were incubated overnight at 4° C. and the plates were then washed 4× with MSD Tris Wash Buffer. […] The plates were read on the Sector 6000 instrument (MSD). Raw data was imported in Abase and EC50s calculated with XL-fit data analysis software.

Assay [2] concerns the target T3, cytoplasmic domain of the human CSF-1R (Homo sapiens, UniProt P07333).
T3 construct: Recombinant protein corresponding to the cytoplasmic domain of the human CSF-1R; purchased Invitrogen Corporation, Carlsbad, Calif; PV3249
T3 sequence (P07333 539-972 limits assumed): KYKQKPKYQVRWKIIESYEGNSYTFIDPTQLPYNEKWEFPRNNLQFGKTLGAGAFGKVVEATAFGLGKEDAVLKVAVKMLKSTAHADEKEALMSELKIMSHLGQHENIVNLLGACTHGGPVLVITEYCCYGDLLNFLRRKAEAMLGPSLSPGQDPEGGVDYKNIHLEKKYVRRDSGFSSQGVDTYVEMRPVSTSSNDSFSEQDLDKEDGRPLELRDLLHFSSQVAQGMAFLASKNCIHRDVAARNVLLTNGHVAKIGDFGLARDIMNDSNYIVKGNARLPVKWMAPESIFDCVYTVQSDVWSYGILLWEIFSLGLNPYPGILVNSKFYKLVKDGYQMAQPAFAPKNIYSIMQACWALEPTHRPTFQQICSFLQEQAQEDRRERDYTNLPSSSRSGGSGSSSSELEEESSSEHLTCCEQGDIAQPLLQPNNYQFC
Put plainly: In vitro kinase assay for colony stimulating factor-1 receptor (AlphaScreen). It counts as biochemical. The following applies: tested at about 1 μM, read-out: CSF-1R percent inhibition. The essentials: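 AlphaScreen read-out (PT66 anti-pTyr acceptor beads, streptavidin donor beads, overnight incubation) measured phosphorylated peptide product. The product was formed by the human CSF-1R cytoplasmic domain at 4 nM with 1 µM ATP in Mg2+/Mn2+ HEPES buffer, pH 7.5. Compound dilution series were 3-fold, starting at 25 µM.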
Background: Alpha assays give light when donor and acceptor beads are brought close together.

For the next assay, the target named is T4, kinase domain of cKIT (Homo sapiens, UniProt P10721).
T4 construct: The kinase domain of cKIT was assayed in 50 mM Hepes; purchased Upstate 14-559
Put plainly: Inhibition of cKIT kinase signaling in an in vitro biochemical assay (alphascreen). The following applies: tested at about 1 μM, read-out: cKit percent inhibition.

Assay [3] deals with MNFS60 (murine AML cells). Put plainly: Cell viability assay in MCSF dependent MNFS60 cells (Cell Titer Glo). The format is cell-based. The following applies: Mus musculus, tested at about 1 μM, read-out: M-NFS-60 CP percent inhibition. The essentials: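 MNFS60 cells grown with 10 ng/ml MCSF (final) were exposed for 72 hrs at 37° C., 5% CO2 to 3-fold serial compound dilutions. Viable cells were measured by Cell Titer Glo luminescence, in triplicate, and EC50s were derived by curve fitting.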

T2 sequence (P07333 20-972): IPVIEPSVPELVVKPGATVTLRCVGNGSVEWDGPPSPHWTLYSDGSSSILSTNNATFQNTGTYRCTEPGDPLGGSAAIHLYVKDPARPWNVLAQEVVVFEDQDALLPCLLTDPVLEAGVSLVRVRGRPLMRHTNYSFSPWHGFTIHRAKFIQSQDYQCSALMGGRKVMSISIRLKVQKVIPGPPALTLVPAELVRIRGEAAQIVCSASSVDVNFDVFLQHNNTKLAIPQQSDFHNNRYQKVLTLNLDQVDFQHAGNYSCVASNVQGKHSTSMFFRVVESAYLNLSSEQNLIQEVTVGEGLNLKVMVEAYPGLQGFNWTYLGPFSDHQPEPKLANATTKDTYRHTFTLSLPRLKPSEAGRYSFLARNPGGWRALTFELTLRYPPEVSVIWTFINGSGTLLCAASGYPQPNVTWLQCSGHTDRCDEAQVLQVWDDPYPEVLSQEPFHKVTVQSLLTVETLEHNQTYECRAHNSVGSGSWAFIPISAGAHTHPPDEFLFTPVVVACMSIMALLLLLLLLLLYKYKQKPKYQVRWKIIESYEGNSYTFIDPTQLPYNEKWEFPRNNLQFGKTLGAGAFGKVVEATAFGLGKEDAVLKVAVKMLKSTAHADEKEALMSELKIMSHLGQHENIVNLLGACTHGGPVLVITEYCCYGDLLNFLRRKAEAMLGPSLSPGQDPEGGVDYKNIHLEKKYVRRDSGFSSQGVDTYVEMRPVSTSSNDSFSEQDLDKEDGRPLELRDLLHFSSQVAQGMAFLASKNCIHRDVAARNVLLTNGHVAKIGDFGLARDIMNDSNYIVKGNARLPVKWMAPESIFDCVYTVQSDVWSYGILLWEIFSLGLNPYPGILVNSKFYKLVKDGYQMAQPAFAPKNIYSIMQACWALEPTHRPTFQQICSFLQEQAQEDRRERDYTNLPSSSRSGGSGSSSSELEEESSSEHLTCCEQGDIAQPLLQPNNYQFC
T4 sequence (P10721 589-937 limits assumed): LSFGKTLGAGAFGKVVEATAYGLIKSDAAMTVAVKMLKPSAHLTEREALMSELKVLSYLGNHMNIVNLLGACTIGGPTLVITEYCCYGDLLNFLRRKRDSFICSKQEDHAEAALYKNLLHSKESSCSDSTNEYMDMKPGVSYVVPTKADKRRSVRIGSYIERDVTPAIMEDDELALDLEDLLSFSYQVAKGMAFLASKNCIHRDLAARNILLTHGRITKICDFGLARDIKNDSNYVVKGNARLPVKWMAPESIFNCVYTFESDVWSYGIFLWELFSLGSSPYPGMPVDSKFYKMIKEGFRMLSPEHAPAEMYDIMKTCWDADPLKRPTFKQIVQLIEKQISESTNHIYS
T1 sequence (P09619 600-962 limits assumed): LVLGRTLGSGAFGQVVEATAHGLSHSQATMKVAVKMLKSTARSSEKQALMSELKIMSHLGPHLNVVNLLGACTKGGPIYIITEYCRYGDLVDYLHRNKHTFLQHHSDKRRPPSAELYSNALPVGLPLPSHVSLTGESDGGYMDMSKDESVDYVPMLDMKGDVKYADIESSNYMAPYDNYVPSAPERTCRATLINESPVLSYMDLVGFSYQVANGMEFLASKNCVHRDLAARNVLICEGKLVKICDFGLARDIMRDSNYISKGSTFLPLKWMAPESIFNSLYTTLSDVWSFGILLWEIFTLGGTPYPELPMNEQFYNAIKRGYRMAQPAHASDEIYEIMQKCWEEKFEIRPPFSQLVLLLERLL

For `Cc1cnc(-c2cc(Oc3ccc4nc(NCC5CCCCC5)oc4c3)ccn2)[nH]1` [Compound 109, Cyclohexylmethyl-{6-[2-(5-methyl-1H-imidazol-2-yl)-pyridin-4-yloxy]-benzooxazol-2-yl}-amine], the inhibition (usually how much of the control response was suppressed) at 1 µM at kinase domain of PDGFRβ is 75%; in assay [1] (HEK293H cells), 90%; in assay [2] it was 100%; at kinase domain of cKIT it was 53%; in assay [3] (MNFS60 cells), 81%.
Take `O[C@@H]1CCCC[C@H]1Nc1nc2ccc(Oc3ccnc(-n4ccnc4)c3)cc2s1` [Example 262, (1R,2R)-2-(6-(2-(1H-imidazol-1-yl)pyridin-4-yloxy)benzo[d]thiazol-2-ylamino)cyclohexanol]: the inhibition at 1 µM came to 3% at kinase domain of PDGFRβ (compounds of Table 3); 48% in assay [1] (compounds of Table 3); 100% in assay [2] (compounds of Table 3); 20% on kinase domain of cKIT (compounds of Table 3); 46% in assay [3] (compounds of Table 3).
For `CNC(=O)c1cc(Oc2ccc3nc(NCc4c(OC)cccc4OC)oc3c2)ccn1` [Compound 84, 4-[2-(2,6-Dimethoxy-benzyl-amino)-benzooxazol-6-yloxy]-pyridine-2-carboxylic acid methylamide], the inhibition at 1 µM at kinase domain of PDGFRβ is 0%; in assay [1] (HEK293H cells) it was 44%; in assay [2], 99%; on kinase domain of cKIT, 12%; in assay [3] (MNFS60 cells) it was 32%.
Consider `CC(C)Cn1cc(-c2cc(Oc3ccc4nc(N[C@@H]5CCCC[C@H]5O)sc4c3)ccn2)cn1` [Example 359, (1R,2R)-2-(6-(2-(1-isobutyl-1H-pyrazol-4-yl)pyridin-4-yloxy)benzo[d]thiazol-2-ylamino)cyclohexanol], for which the inhibition at 1 µM turned out to be 19% at kinase domain of PDGFRβ; 93% in assay [1] (HEK293H cells); 100% in assay [2]; 31% at kinase domain of cKIT; 95% in assay [3] (MCSF dependent MNFS60 cells).
Regarding `CNC(=O)c1cc(Oc2ccc3nc(N[C@H](C)c4ccccc4)sc3c2)ccn1` [Compound 131, 4-[2-((R)-1-Phenyl-ethylamino)-benzothiazol-6-yloxy]-pyridine-2-carboxylic acid methylamide], the inhibition at 1 µM at kinase domain of PDGFRβ was found to be 55%; in assay [1] (HEK293H cells), 98%; in assay [2], 99%; on kinase domain of cKIT, 96%; in assay [3] (MNFS60 cells) it was 100%.
For the compound `CCc1[nH]c(-c2cc(Oc3ccc4nc(N[C@@H]5CCCC[C@H]5O)sc4c3)ccn2)nc1C` [Cmpd 162, (1R,2R)-2-(6-(2-(5-ethyl-4-methyl-1H-imidazol-2-yl)pyridin-4-yloxy)benzo[d]thiazol-2-ylamino)cyclohexanol], the inhibition at 1 µM was determined as 30% on kinase domain of PDGFRβ (compounds of Table 3); 99% in assay [1] (compounds of Table 3); 100% in assay [2] (compounds of Table 3); 20% on kinase domain of cKIT (compounds of Table 3); 100% in assay [3] (compounds of Table 3).
On to `CNC(=O)c1cc(Oc2ccc3nc(NCc4ccc5c(c4)CCO5)oc3c2)ccn1` [Compound 124, 4-{2-[(2,3-Dihydro-benzofuran-5-ylmethyl)-amino]-benzooxazol-6-yloxy}-pyridine-2-carboxylic acid methylamide], for which the inhibition at 1 µM came out at 0% at kinase domain of PDGFRβ; 94% in assay [1] (HEK293H cells); 99% in assay [2]; 32% on kinase domain of cKIT; 51% in assay [3] (MNFS60 cells).
As for `CC(C)CONC(=O)c1cc(Oc2ccc3nc(N[C@@H]4CCCC[C@H]4O)sc3c2)ccn1` [Example 381, 4-(2-((1R,2R)-2-hydroxycyclohexylamino)benzo[d]thiazol-6-yloxy)-N-isobutoxypicolinamide], the inhibition at 1 µM at kinase domain of PDGFRβ was 20%; in assay [1] (HEK293H cells), 99%; in assay [2] it was 100%; at kinase domain of cKIT, 30%; in assay [3] (MCSF dependent MNFS60 cells) it was 100%.
